21 compounds from patent US20230212121A1 (DAEGU-GYEONGBUK MEDICAL INNOVATION FOUNDATION, priority 2020, published 2023) can be followed below.

By IC50 is commonly meant the concentration that inhibits the measured activity by half.

Format in all cases: cell-based
Test [1] addresses T1, norepinephrine transporter (NET) (Homo sapiens, UniProt P23975).
T1 construct: expressed in transfected cells; host or cells: HEK-293
The test is described as follows: Norepinephrine reuptake inhibition, [3H]-NE, HEK-293 cells transfected with NE transporter cDNA. As to conditions: for Triple reuptake inhibition (Ratio %) NET: compound 1 μM, [3H]-NE, relative to control without compound = 100%, lower value = more inhibition; for IC50: concentration at which Ratio % is 50%, 6 concentrations 1 nM to 1 μM, read-out: Triple reuptake inhibition (IC50, μM) NET. The gist of the method:
(§1)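 HEK-293 cells transfected with SERT or NET cDNA were preincubated with compounds in uptake buffer for 15 min at 37 °C, then given [3H]-5-HT or [3H]-NE for 5 min at 37 °C. After ice-cold washes and 1% SDS lysis, retained radioactivity was expressed relative to the untreated control (100%). Screening was at 1 μM; IC50 came from six concentrations (1 nM–1 μM).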

For test [2], the target named is T2, serotonin transporter (SERT) (Homo sapiens, UniProt P31645).
T2 construct: expressed in transfected cells; host or cells: HEK-293
Description: Serotonin reuptake inhibition, [3H]-5-HT, HEK-293 cells transfected with 5-HT transporter cDNA. The note with it: for Triple reuptake inhibition (Ratio %) SERT: compound 1 μM, [3H]-5-HT, relative to control without compound = 100%, lower value = more inhibition; for IC50: concentration at which Ratio % is 50%, 6 concentrations 1 nM to 1 μM, read-out: Triple reuptake inhibition (IC50, μM) SERT. The gist of the method: as §1

The target in test [3] is T3, dopamine transporter (DAT) (Homo sapiens, UniProt Q01959).
T3 construct: expressed in transfected cells; host or cells: HEK-293
The test is described as follows: Dopamine reuptake inhibition, [3H]-DA, HEK-293 cells transfected with dopamine transporter cDNA. As to conditions: for Triple reuptake inhibition (Ratio %) DAT: compound 1 μM, 20-30 nM [3H]-DA, relative to control without compound = 100%, lower value = more inhibition; for IC50: concentration at which Ratio % is 50%, 6 concentrations 1 nM to 1 μM, read-out: Triple reuptake inhibition (IC50, μM) DAT. The gist of the method: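 Transfected cells were preincubated with compound (1 μM screen) for 15 min at 37 °C, then given 20-30 nM tracer for 5 min at 37 °C, washed ice-cold and lysed in 1% SDS for radioactivity counting. Uptake was expressed as % of untreated control, and IC50 came from six concentrations, 1 nM to 1 μM.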

T2 sequence (P31645 whole entry, species assumed): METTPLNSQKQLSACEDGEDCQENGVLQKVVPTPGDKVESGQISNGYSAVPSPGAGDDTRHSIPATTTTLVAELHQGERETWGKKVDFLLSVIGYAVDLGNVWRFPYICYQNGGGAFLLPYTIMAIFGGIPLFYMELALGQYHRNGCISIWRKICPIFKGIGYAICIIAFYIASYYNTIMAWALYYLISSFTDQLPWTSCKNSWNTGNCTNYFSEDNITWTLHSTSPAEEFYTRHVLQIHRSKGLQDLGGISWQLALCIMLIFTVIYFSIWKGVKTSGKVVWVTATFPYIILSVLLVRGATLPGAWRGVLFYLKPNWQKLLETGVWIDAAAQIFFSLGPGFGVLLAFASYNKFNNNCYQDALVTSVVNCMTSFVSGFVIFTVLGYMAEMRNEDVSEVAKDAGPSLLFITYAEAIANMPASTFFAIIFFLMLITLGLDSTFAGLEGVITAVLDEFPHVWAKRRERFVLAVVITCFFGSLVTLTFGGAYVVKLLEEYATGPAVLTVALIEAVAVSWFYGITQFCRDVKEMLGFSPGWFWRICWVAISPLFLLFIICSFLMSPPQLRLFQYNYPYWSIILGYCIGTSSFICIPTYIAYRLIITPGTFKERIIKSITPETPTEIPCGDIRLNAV
T1 sequence (P23975 whole entry, species assumed): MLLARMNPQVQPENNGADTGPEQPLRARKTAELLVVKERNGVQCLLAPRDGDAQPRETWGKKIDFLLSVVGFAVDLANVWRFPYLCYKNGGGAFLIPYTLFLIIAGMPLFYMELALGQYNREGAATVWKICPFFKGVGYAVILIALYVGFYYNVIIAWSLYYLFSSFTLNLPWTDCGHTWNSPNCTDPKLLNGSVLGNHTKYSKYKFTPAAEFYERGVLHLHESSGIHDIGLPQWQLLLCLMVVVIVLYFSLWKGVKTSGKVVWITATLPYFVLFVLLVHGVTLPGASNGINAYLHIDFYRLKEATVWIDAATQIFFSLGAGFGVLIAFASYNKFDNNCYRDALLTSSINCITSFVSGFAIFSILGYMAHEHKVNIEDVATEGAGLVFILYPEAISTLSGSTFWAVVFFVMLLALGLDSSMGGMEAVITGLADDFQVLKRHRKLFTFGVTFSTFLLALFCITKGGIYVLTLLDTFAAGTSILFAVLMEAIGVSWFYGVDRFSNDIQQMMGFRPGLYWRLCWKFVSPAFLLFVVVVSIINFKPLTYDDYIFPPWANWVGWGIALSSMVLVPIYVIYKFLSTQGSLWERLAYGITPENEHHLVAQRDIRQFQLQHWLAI
T3 sequence (Q01959 whole entry, species assumed): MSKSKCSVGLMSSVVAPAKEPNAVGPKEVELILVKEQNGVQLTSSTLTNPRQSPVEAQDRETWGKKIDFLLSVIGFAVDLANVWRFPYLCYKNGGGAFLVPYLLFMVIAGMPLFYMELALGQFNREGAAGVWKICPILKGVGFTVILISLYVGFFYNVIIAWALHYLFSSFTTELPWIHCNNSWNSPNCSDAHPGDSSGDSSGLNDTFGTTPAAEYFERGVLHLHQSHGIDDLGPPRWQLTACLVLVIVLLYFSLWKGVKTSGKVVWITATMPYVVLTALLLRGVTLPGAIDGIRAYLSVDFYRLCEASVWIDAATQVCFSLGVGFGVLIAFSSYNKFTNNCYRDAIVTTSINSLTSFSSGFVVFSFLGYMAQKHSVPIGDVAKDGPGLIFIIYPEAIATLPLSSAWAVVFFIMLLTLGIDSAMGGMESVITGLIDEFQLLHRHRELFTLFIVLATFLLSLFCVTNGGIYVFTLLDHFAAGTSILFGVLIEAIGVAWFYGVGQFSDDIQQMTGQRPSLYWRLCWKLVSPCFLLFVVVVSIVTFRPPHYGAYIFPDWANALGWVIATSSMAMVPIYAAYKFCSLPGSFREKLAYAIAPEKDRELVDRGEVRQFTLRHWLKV

On to `O=S(=O)(NCCCN1CCC(Cc2ccccc2)CC1)c1cccc2ccccc12` [Example 55, N-(3-(4-benzylpiperidin-1-yl)propyl)naphthalen-1-sulfonamide], for which, in test [1], the “Triple reuptake inhibition (Ratio %) NET” value is 31.83% and the IC50 stood at 1.3 µM. In test [2], the “Triple reuptake inhibition (Ratio %) SERT” value amounted to 46.18% and the IC50 is 1.45 µM. Further, in test [3], the “Triple reuptake inhibition (Ratio %) DAT” value was 35.21% and the IC50 turned out to be 1.55 µM.

Consider `O=S(=O)(NCCCN1CCC(Cc2ccccc2)CC1)c1ccc(-c2ccccc2)cc1` [Example 56, N-(3-(4-benzylpiperidin-1-yl)propyl)-[1,1′-biphenyl]-4-sulfonamide], for which, in test [1], the “Triple reuptake inhibition (Ratio %) NET” value was 68.65% and the IC50 is 0.641 µM. In test [2], the “Triple reuptake inhibition (Ratio %) SERT” value stood at 56.50% and the IC50 is 0.75 µM. For the same compound, in test [3], the “Triple reuptake inhibition (Ratio %) DAT” value stood at 61.90% and the IC50 came to 0.42 µM.

For `O=S(=O)(NCCCN1CCC(Cc2ccccc2)CC1)c1ccc2ccccc2n1` [Example 57, N-(3-(4-benzylpiperidin-1-yl)propyl)quinolin-2-sulfonamide], in test [1], the “Triple reuptake inhibition (Ratio %) NET” value was 30.54% and the IC50 was 1.35 µM. Besides, in test [2], the “Triple reuptake inhibition (Ratio %) SERT” value turned out to be 53.66% and the IC50 came to 0.345 µM. Moreover, in test [3], the “Triple reuptake inhibition (Ratio %) DAT” value stood at 13.09% and the concentration for half-maximal inhibition (IC50) was 4.48 µM.

On to `O=S(=O)(NCCCN1CCC(Cc2ccccc2)CC1)c1ccc(-c2ccc(F)cc2)cc1` [Example 58, N-(3-(4-benzylpiperidin-1-yl)propyl)-4′-fluoro-[1,1′-biphenyl]-4-sulfonamide], for which, in test [1], the “Triple reuptake inhibition (Ratio %) NET” value was determined as 44.79% and the IC50 was found to be 0.429 µM. Also, in test [2], the “Triple reuptake inhibition (Ratio %) SERT” value worked out at 50.76% and the IC50 is 1.84 µM. Moreover, in test [3], the “Triple reuptake inhibition (Ratio %) DAT” value is 55.51% and the IC50 was 0.647 µM.

Consider `O=S(=O)(NCCCN1CCC(Cc2ccccc2)CC1)c1ccc(-c2ccc(Cl)cc2)cc1` [Example 59, N-(3-(4-benzylpiperidin-1-yl)propyl)-4′-chloro-[1,1′-biphenyl]-4-sulfonamide], for which the “Triple reuptake inhibition (Ratio %) NET” value in test [1] was 44.79%. For the same compound, in test [2], the “Triple reuptake inhibition (Ratio %) SERT” value came to 29.78%. Also, the “Triple reuptake inhibition (Ratio %) DAT” value in test [3] was found to be 15.16%.

Consider `Cc1ccc(-c2ccc(S(=O)(=O)NCCCN3CCC(Cc4ccccc4)CC3)cc2)cc1` [Example 60, N-(3-(4-benzylpiperidin-1-yl)propyl)-4′-methyl-[1,1′-biphenyl]-4-sulfonamide], for which the “Triple reuptake inhibition (Ratio %) NET” value in test [1] is listed as 44.79%. Further, in test [2], the “Triple reuptake inhibition (Ratio %) SERT” value was 17.76%. Besides, the “Triple reuptake inhibition (Ratio %) DAT” value in test [3] amounted to 9.15%.

Take `COc1ccc(-c2ccc(S(=O)(=O)NCCCN3CCC(Cc4ccccc4)CC3)cc2)cc1` [Example 61, N-(3-(4-benzylpiperidin-1-yl)propyl)-4′-methoxy-[1,1′-biphenyl]-4-sulfonamide]: the “Triple reuptake inhibition (Ratio %) NET” value in test [1] is reported as 44.79%. Moreover, in test [2], the “Triple reuptake inhibition (Ratio %) SERT” value is 30.78%. Moreover, the “Triple reuptake inhibition (Ratio %) DAT” value in test [3] was determined as 29.62%.

Take `O=S(=O)(NCCCN1CCC(c2ccccc2)CC1)c1cccc2ccccc12` [Example 63]: the “Triple reuptake inhibition (Ratio %) NET” value in test [1] is listed as 34.97%. The “Triple reuptake inhibition (Ratio %) SERT” value in test [2] turned out to be 64.15%. Also, the “Triple reuptake inhibition (Ratio %) DAT” value in test [3] came out at 80.21%.

With `O=S(=O)(NCCCN1CCC(c2ccccc2)CC1)c1ccc2ccccc2n1` [Example 65, N-(3-(4-phenylpiperidin-1-yl)propyl)quinolin sulfonamide], the “Triple reuptake inhibition (Ratio %) NET” value in test [1] amounted to 45.04%. Besides, the “Triple reuptake inhibition (Ratio %) SERT” value in test [2] is on record as 56.73%. Besides, the “Triple reuptake inhibition (Ratio %) DAT” value in test [3] was determined as 89.88%.

`O=S(=O)(NCCCN1CCN(Cc2ccccc2)CC1)c1cccc2ccccc12` [Example 67]: the “Triple reuptake inhibition (Ratio %) NET” value in test [1] was 87.27%. Moreover, the “Triple reuptake inhibition (Ratio %) SERT” value in test [2] came out at 49.64%. In test [3], the “Triple reuptake inhibition (Ratio %) DAT” value amounted to 83.08%.

As for `O=S(=O)(NCCCN1CCN(c2ccc(Cl)cc2)CC1)c1ccc2ccccc2c1` [Example 70, N-(3-(4-(4-chlorophenyl)piperazin-1-yl)propyl)naphthalen-2-sulfonamide], the “Triple reuptake inhibition (Ratio %) NET” value in test [1] was 87.27%. Moreover, the “Triple reuptake inhibition (Ratio %) SERT” value in test [2] turned out to be 45.16%. In test [3], the “Triple reuptake inhibition (Ratio %) DAT” value is 86.5%.

For `O=S(=O)(NCCCN1CCN(c2ccc(Cl)cc2)CC1)c1cccc2ccccc12` [Example 71, N-(3-(4-(4-chlorophenyl)piperazin-1-yl)propyl)naphthalen-1-sulfonamide], the “Triple reuptake inhibition (Ratio %) NET” value in test [1] is listed as 64.45%. For the same compound, in test [2], the “Triple reuptake inhibition (Ratio %) SERT” value was 47.19%. Also, the “Triple reuptake inhibition (Ratio %) DAT” value in test [3] worked out at 68.53%.

Regarding `O=S(=O)(NCCCN1CCN(c2ccc(Cl)cc2)CC1)c1ccc(-c2ccccc2)cc1` [Example 72, N-(3-(4-(4-chlorophenyl)piperazin-1-yl)propyl)-[1,1′-biphenyl]-4-sulfonamide], the “Triple reuptake inhibition (Ratio %) NET” value in test [1] was 64.45%. For the same compound, the “Triple reuptake inhibition (Ratio %) SERT” value in test [2] stood at 47.19%. Also, the “Triple reuptake inhibition (Ratio %) DAT” value in test [3] worked out at 68.53%.

As to `O=S(=O)(NCCCN1CCN(c2ccc(Cl)cc2)CC1)c1ccc2ccccc2n1` [Example 73, N-(3-(4-(4-chlorophenyl)piperazin-1-yl)propyl)quinolin-2-sulfonamide], the “Triple reuptake inhibition (Ratio %) NET” value in test [1] was 64.45%. For the same compound, in test [2], the “Triple reuptake inhibition (Ratio %) SERT” value was 47.19% and the IC50 stood at 0.102 µM. For the same compound, the “Triple reuptake inhibition (Ratio %) DAT” value in test [3] is 68.53%.

`O=S(=O)(NCCCN1CCC(CCCc2ccccc2)CC1)c1ccc(-c2ccc(F)cc2)cc1` [Example 74, 4′-fluoro-N-(3-(4-(3-phenylpropyl)piperidin-1-yl)propyl)-[1,1′-biphenyl]-4-sulfonamide]: in test [1], the “Triple reuptake inhibition (Ratio %) NET” value stood at 44.79%. For the same compound, the “Triple reuptake inhibition (Ratio %) SERT” value in test [2] amounted to 61.48%. For the same compound, the “Triple reuptake inhibition (Ratio %) DAT” value in test [3] was 76.23%.

Consider `O=S(=O)(NCCCN1CCC(CCCc2ccccc2)CC1)c1ccc(-c2ccccc2)cc1` [Example 75, N-(3-(4-(3-phenylpropyl)piperidin-1-yl)propyl)-[1,1′-biphenyl]-4-sulfonamide], for which the “Triple reuptake inhibition (Ratio %) NET” value in test [1] amounted to 44.79%. Besides, in test [2], the “Triple reuptake inhibition (Ratio %) SERT” value is 61.48%. The “Triple reuptake inhibition (Ratio %) DAT” value in test [3] is on record as 76.23%.

As to `O=S(=O)(NCCCN1CCN(CCCc2ccccc2)CC1)c1ccc(-c2ccccc2)cc1` [Example 76, N-(3-(4-(3-phenylpropyl)piperazin-1-yl)propyl)-[1,1′-biphenyl]-4-sulfonamide], in test [1], the “Triple reuptake inhibition (Ratio %) NET” value was found to be 44.79%. For the same compound, the “Triple reuptake inhibition (Ratio %) SERT” value in test [2] was 44.91%. Further, in test [3], the “Triple reuptake inhibition (Ratio %) DAT” value amounted to 19.97%.

For the compound `O=S(=O)(NCCCCN1CCC(Cc2ccccc2)CC1)c1ccc(-c2ccccc2)cc1` [Example 77, N-(4-(4-benzylpiperidin-1-yl)butyl)-[1,1′-biphenyl]-4-sulfonamide], the “Triple reuptake inhibition (Ratio %) NET” value in test [1] was found to be 44.79%. The “Triple reuptake inhibition (Ratio %) SERT” value in test [2] turned out to be 40.45%. Further, in test [3], the “Triple reuptake inhibition (Ratio %) DAT” value came to 25.71%.

Consider `O=S(=O)(NCCCCN1CCN(CCCc2ccccc2)CC1)c1ccc(-c2ccccc2)cc1` [Example 78, N-(4-(4-(3-phenylpropyl)piperazin-1-yl)butyl)-[1,1′-biphenyl]-4-sulfonamide], for which the “Triple reuptake inhibition (Ratio %) NET” value in test [1] stood at 44.79%. Besides, in test [2], the “Triple reuptake inhibition (Ratio %) SERT” value was 32.90%. Besides, in test [3], the “Triple reuptake inhibition (Ratio %) DAT” value came out at 25.52%.

`O=S(=O)(NCCCCN1CCC(CCCc2ccccc2)CC1)c1ccc(-c2ccccc2)cc1` [Example 79, N-(4-(4-(3-phenylpropyl)piperidin-1-yl)butyl)-[1,1′-biphenyl]-4-sulfonamide]: the “Triple reuptake inhibition (Ratio %) NET” value in test [1] is given as 30.25%. The “Triple reuptake inhibition (Ratio %) SERT” value in test [2] was 21.60%. The “Triple reuptake inhibition (Ratio %) DAT” value in test [3] is recorded as 20.60%.

In the case of “N-(3-(4-benzylpiperidin-1-yl)propyl)-4-butoxybenzenesulfineamide [Example 19]”, in test [1], the “Triple reuptake inhibition (Ratio %) NET” value is on record as 64.78%. Moreover, the “Triple reuptake inhibition (Ratio %) SERT” value in test [2] worked out at 67.86%. The “Triple reuptake inhibition (Ratio %) DAT” value in test [3] is recorded as 57.52%.
